According to patent US4361553A, “Therapeutic uses of dynorphin” (Regents of the University of California, priority 1981, dated 1982):

Key:
naive mice = test: Tail-flick analgesia, morphine s.c. with or without dynorphin-(1-13) i.c.v., naive group (Example III); format: in vivo
Method: (§1) Male simonesen ICR mice (Gilroy, CA) weighing between 20-25 g were housed for at least one day prior to experimentation, and used within 5 days. Each mouse was used only once.
(§2) Analgesia was measured by the tail-flick method of D'Amour and Smith, J.Pharmac.Exp.Ther., 72, pp. 74-79 (1941), incorporated herein by reference, as modified by Tulunay and Takemori, J.Pharmac.Exp.Ther., 190, pp. 395-400 (1974), incorporated herein by reference. […] Nonresponding animals were removed from the heat stimulus when reaction times exceeded 10 sec. to avoid the tail damage.
(§3) Drugs were injected 30 min prior to testing, unless otherwise indicated.
(§4) The animals were separated into two groups.
(§5) The ED50 values, their 95% confidence limits and significance of the potency ratio between two ED50 values were determined by the method of Litchfield and Wilcoxon, J.Pharmacol.Exp.Ther, 96:99-113 (1949), incorporated herein by reference.

[1] = Addictiveness compared with morphine; format: in vivo
guinea pig ileum = settings: cited from earlier work
mouse vas deferens = settings: cited from earlier work
morphine dependent mice = test: Spontaneous withdrawal jumping after removal of morphine pellets (Example IV); format: in vivo; settings: compared with saline
Method: Mice which jumped were separated and received 4 μl of saline i.c.v. or different doses of dynorphin, and tested 30 min and then 60 min after injection.

morphine tolerant mice [2] = test: Tail-flick analgesia, morphine s.c. with or without dynorphin-(1-13) i.c.v., morphine tolerant group (Example I); format: in vivo; settings: dynorphin alone up to 50 μg/mouse
Method: as §1, §2, §3, §4, §5

morphine tolerant mice [3] = test: Tail-flick analgesia, β-endorphin i.c.v. with or without dynorphin-(1-13) i.c.v., morphine tolerant group (Example II); format: in vivo; settings: for ED50 of β-endorphin: i.c.v.
Method: as §1, §2, §3, §4, §5

CN1CC[C@]23c4c5ccc(O)c4O[C@H]2[C@@H](O)C=C[C@H]3[C@H]1C5.O=S(=O)(O)O [Morphine, morphine sulfate]
Analgesia (%) (naive mice; morphine 2 mg/kg s.c. alone): 10% | Analgesia (%) (naive mice; morphine 4 mg/kg s.c. alone): 30% | Analgesia (%) (naive mice; morphine 7.5 mg/kg s.c. alone): 80%

CC[C@H](C)[C@H](NC(=O)[C@H](CCCNC(=N)N)NC(=O)[C@H](CCCNC(=N)N)NC(=O)[C@H](CC(C)C)NC(=O)[C@H](Cc1ccccc1)NC(=O)CNC(=O)CNC(=O)[C@@H](N)Cc1ccc(O)cc1)C(=O)N[C@@H](CCCNC(=N)N)C(=O)N1CCC[C@H]1C(=O)N[C@@H](CCCCN)C(=O)N[C@@H](CC(C)C)C(=O)N[C@@H](CCCCN)C(=O)O [dynorphin-(1-13)]
Times less addictive than morphine [1]: at least 100 times

dynorphin
Agonist properties in guinea pig ileum (guinea pig ileum): potent agonist properties | Agonist properties in mouse vas deferens (mouse vas deferens): potent agonist properties | Effect on withdrawal (morphine dependent mice): significantly reduced, or repressed, withdrawal | Own analgesic potency (morphine tolerant mice [2]): no analgesic potency

β-endorphin
ED50 of β-endorphin (morphine tolerant mice [3]; in the presence of 10 μg dynorphin-(1-13)): about 1.00 μg/mouse | ED50 of β-endorphin (morphine tolerant mice [3]; in the presence of 20 μg dynorphin-(1-13)): about 0.55 μg/mouse | Analgesia (%) (morphine tolerant mice [3]; β-endorphin 1 μg/mouse i.c.v. alone): 10% | Analgesia (%) (morphine tolerant mice [3]; β-endorphin 2 μg/mouse i.c.v. alone): 40% | Analgesia (%) (morphine tolerant mice [3]; β-endorphin 6 μg/mouse i.c.v. alone): 100%
